The text below walks through data of patent US20260324639A1, “MICROBIOCIDAL PYRAZOLE DERIVATIVES” (SYNGENTA CROP PROTECTION AG, priority 2022, published 2026).

In one assay the test system is Pyrenophora teres. Nature of the assay: Pyrenophora teres/barley/leaf disc preventative (net blotch). The class given is in vivo. To be noted: 200 ppm, barley leaf segments cv. Hasso, inoculated 2 days after application, assessed 5-7 days after application. Here is the method: Barley leaf segments cv. Hasso are placed on agar in a multiwell plate (24-well format) and sprayed with the formulated test compound diluted in water. The leaf segments are inoculated with a spore suspension of the fungus 2 days after application. The inoculated leaf segments are incubated at 20° C. and 65% rh under a light regime of 12 h light/12 h darkness in a climate cabinet and the activity of a compound is assessed as disease control compared to untreated when an appropriate level of disease damage appears in untreated check leaf segments (5-7 days after application).

The next assay deals with Monographella nivalis. Nature of the assay: Monographella nivalis (Microdochium nivale)/liquid culture (foot rot cereals). The class given is cell-based. The conditions noted are these: liquid culture, PDB, 24° C., growth inhibition photometric 4-5 days after application, read-out: control of Monographella nivalis compared to untreated control. Here is the method: (§1) Conidia of the fungus from cryogenic storage are directly mixed into nutrient broth (PDB potato dextrose broth). After placing a (DMSO) solution of test compound into a microtiter plate (96-well format), the nutrient broth containing the fungal spores is added. The test plates are incubated at 24° C. and the inhibition of growth is determined photometrically 4-5 days after application.

A further assay concerns Alternaria solani. Nature of the assay: Alternaria solani/tomato/leaf disc (early blight). In kind it is in vivo. To be noted: 200 ppm; tomato leaf disks cv. Baby; inoculated 2 days after application; assessed 5-7 days after application. Here is the method:
Tomato leaf disks cv. Baby are placed on agar in multiwell plates (24-well format) and sprayed with the formulated test compound diluted in water. The leaf disks are inoculated with a spore suspension of the fungus 2 days after application. The inoculated leaf disks are incubated at 23° C./21° C. (day/night) and 80% rh under a light regime of 12/12 h (light/dark) in a climate cabinet and the activity of a compound is assessed as percent disease control compared to untreated when an appropriate level of disease damage appears on untreated check disk leaf disks (5-7 days after application).

The test system of assay [1] is Blumeria graminis f. sp. tritici. Nature of the assay: Blumeria graminis f. sp. tritici/wheat/leaf disc preventative (powdery mildew on wheat). The class given is in vivo. The conditions noted are these: 200 ppm, wheat leaf segments cv. Kanzler, inoculated 1 day after application, assessed 6-8 days after application. Here is the method: Wheat leaf segments cv. Kanzler are placed on agar in a multiwell plate (24-well format) and sprayed with the formulated test compound diluted in water. The leaf disks are inoculated by shaking powdery mildew infected plants above the test plates 1 day after application. The inoculated leaf disks are incubated at 20° C. and 60% rh under a light regime of 24 h darkness followed by 12 h light/12 h darkness in a climate chamber and the activity of a compound is assessed as percent disease control compared to untreated when an appropriate level of disease damage appears on untreated check leaf segments (6-8 days after application).

The subject of a further assay is Mycosphaerella arachidis. Nature of the assay: Mycosphaerella arachidis (Cercospora arachidicola)/liquid culture (early leaf spot). In kind it is cell-based. To be noted: liquid culture, PDB, 24° C., growth inhibition photometric 4-5 days after application, read-out: control of Mycosphaerella arachidis compared to untreated control. Here is the method: as §1
For assay [2], the system named is Puccinia recondita f. sp. tritici. Nature of the assay: Puccinia recondita f. sp. tritici/wheat/leaf disc preventative (brown rust). In kind it is in vivo. The conditions noted are these: 200 ppm, inoculated 1 day after application, wheat leaf segments cv. Kanzler, assessed 7-9 days after application. Here is the method: Wheat leaf segments cv. Kanzler are placed on agar in multiwell plates (24-well format) and sprayed with the formulated test compound diluted in water. The leaf disks are inoculated with a spore suspension of the fungus 1 day after application. The inoculated leaf segments are incubated at 19° C. and 75% rh under a light regime of 12 h light/12 h darkness in a climate cabinet and the activity of a compound is assessed as percent disease control compared to untreated when an appropriate level of disease damage appears in untreated check leaf segments (7-9 days after application).

The next assay deals with Botryotinia fuckeliana. Nature of the assay: Botryotinia fuckeliana (Botrytis cinerea)/liquid culture (gray mould). The class given is cell-based. The conditions noted are these: liquid culture, Vogels broth, 24° C., growth inhibition photometric 3-4 days after application, read-out: control of Botryotinia fuckeliana compared to untreated control. Here is the method: Conidia of the fungus from cryogenic storage are directly mixed into nutrient broth (Vogels broth). After placing a (DMSO) solution of test compound into a microtiter plate (96-well format), the nutrient broth containing the fungal spores is added. The test plates are incubated at 24° C. and the inhibition of growth is determined photometrically 3-4 days after application.

The test system of assay [3] is Mycosphaerella graminicola. Nature of the assay: Mycosphaerella graminicola (Septoria tritici)/liquid culture (Septoria blotch). To be noted: Zymoseptoria tritici, liquid culture, PDB, 24° C., growth inhibition photometric 4-5 days after application, read-out: control of Mycosphaerella graminicola compared to untreated control. The class given is cell-based. Here is the method: as §1

Another assay deals with Glomerella lagenarium. Nature of the assay: Glomerella lagenarium (Colletotrichum lagenarium)/liquid culture (anthracnose). The class given is cell-based. The conditions noted are these: Colletotrichum orbiculare, liquid culture, PDB, 24° C., growth inhibition photometric 3-4 days after application, read-out: control of Glomerella lagenarium compared to untreated control. Here is the method: Conidia of the fungus from cryogenic storage are directly mixed into nutrient broth (PDB potato dextrose broth). After placing a (DMSO) solution of test compound into a microtiter plate (96-well format), the nutrient broth containing the fungal spores is added. The test plates are incubated at 24° C. and the inhibition of growth is measured photometrically 3-4 days after application.

The next assay deals with Phaeosphaeria nodorum. Nature of the assay: Phaeosphaeria nodorum (Septoria nodorum)/wheat/leaf disc preventative (glume blotch). The class given is in vivo. The conditions noted are these: 200 ppm, wheat leaf segments cv. Kanzler, inoculated 2 days after application, assessed 5-7 days after application. Here is the method: Wheat leaf segments cv. Kanzler are placed on agar in a multiwell plate (24-well format) and sprayed with the formulated test compound diluted in water. The leaf disks are inoculated with a spore suspension of the fungus 2 days after application. The inoculated test leaf disks are incubated at 20° C. and 75% rh under a light regime of 12 h light/12 h darkness in a climate cabinet and the activity of a compound is assessed as percent disease control compared to untreated when an appropriate level of disease damage appears in untreated check leaf disks (5-7 days after application).

The subject of a further assay is Fusarium culmorum. Nature of the assay: microbe, parasite or virus in culture. In kind it is cell-based. The conditions noted are these: read-out: control of Fusarium culmorum compared to untreated control. Here is the method: Conidia of the fungus from cryogenic storage are directly mixed into nutrient broth (PDB potato dextrose broth). After placing a (DMSO) solution of test compound into a microtiter plate (96-well format), the nutrient broth containing the fungal spores is added. The test plates are incubated at 24° C. and the inhibition of growth is determined photometrically 3-4 days after application.

Structures are written as SMILES. Where only a bound is given, the exact number is not on record here.

Consider `C[C@H]1c2ccccc2[C@@H](c2cnn(C)c2Cl)CN1C(=O)c1nnn(-c2ccc(F)cc2F)n1` [Compound P-49, [(1S,4S)-4-(5-chloro-1-methyl-pyrazol-4-yl)-1-methyl-3,4-dihydro-1H-isoquinolin-2-yl]-[2-(2,4-difluorophenyl)tetrazol-5-yl]methanone], for which the “control of Pyrenophora teres compared to untreated control” value with Pyrenophora teres is given as “at least 80%”. Also, the inhibition of growth at 20 ppm (in the assay with Monographella nivalis; in the assay with Mycosphaerella arachidis; with Botryotinia fuckeliana; in assay [3]; with Glomerella lagenarium) was at least 80% throughout. In addition, the “control of Alternaria solani compared to untreated control” value with Alternaria solani is “at least 80%”. Further, the “control of Blumeria graminis f. sp. tritici compared to untreated control” value in assay [1] is “at least 80%”. The “control of Puccinia recondita f. sp. tritici compared to untreated control” value in assay [2] is “at least 80%”. Also, the “control of Phaeosphaeria nodorum compared to untreated control” value in the assay with Phaeosphaeria nodorum is given as “at least 80%”.

As for `Cc1c([C@H]2CN(C(=O)c3cn(-c4ncc(F)cc4F)nn3)[C@@H](C)c3ccccc32)cnn1C` [Compound P-43, [1-(3,5-difluoro-2-pyridyl)triazol-4-yl]-[(1S,4S)-4-(1,5-dimethylpyrazol-4-yl)-1-methyl-3,4-dihydro-1H-isoquinolin-2-yl]methanone], the “control of Pyrenophora teres compared to untreated control” value in the assay on Pyrenophora teres is “at least 80%”. The inhibition of growth at 20 ppm (with Monographella nivalis; in the assay with Mycosphaerella arachidis; with Botryotinia fuckeliana; in [3]; with Glomerella lagenarium; in the assay on Fusarium culmorum) was at least 80% in each case. Moreover, in the assay with Alternaria solani, the “control of Alternaria solani compared to untreated control” value is reported as “at least 80%”. In [1], the “control of Blumeria graminis f. sp. tritici compared to untreated control” value was “at least 80%”. Moreover, the “control of Phaeosphaeria nodorum compared to untreated control” value in the assay on Phaeosphaeria nodorum is listed as “at least 80%”.

For `C[C@H]1c2ccccc2[C@@H](c2cnn(C)c2Cl)CN1C(=O)c1cn(-c2ncc(F)cc2F)nn1` (racemic) [Compound P-53, [1-(3,5-difluoro-2-pyridyl)triazol-4-yl]-[rac-(1S,4S)-4-(5-chloro-1-methyl-pyrazol-4-yl)-1-methyl-3,4-dihydro-1H-isoquinolin-2-yl]methanone], the “control of Pyrenophora teres compared to untreated control” value in the assay on Pyrenophora teres was “at least 80%”. Further, the inhibition of growth at 20 ppm (in the assay with Monographella nivalis; in the assay with Mycosphaerella arachidis; in the assay on Botryotinia fuckeliana; in assay [3]; in the assay with Glomerella lagenarium; with Fusarium culmorum) was at least 80% each time. Moreover, in the assay with Alternaria solani, the “control of Alternaria solani compared to untreated control” value was “at least 80%”. Moreover, in assay [1], the “control of Blumeria graminis f. sp. tritici compared to untreated control” value is on record as “at least 80%”. Besides, the “control of Phaeosphaeria nodorum compared to untreated control” value in the assay on Phaeosphaeria nodorum is reported as “at least 80%”.

With `Cc1c(C2CN(C(=O)c3cn(-c4ccc(F)cc4F)nn3)Cc3ccccc32)cnn1C` (centres unmarked) [Compound P-56, [1-(2,4-difluorophenyl)triazol-4-yl]-[4-(1,5-dimethylpyrazol-4-yl)-3,4-dihydro-1H-isoquinolin-2-yl]methanone], in the assay with Pyrenophora teres, the “control of Pyrenophora teres compared to untreated control” value is “at least 80%”. Besides, the inhibition of growth at 20 ppm (in the assay with Monographella nivalis; in the assay on Mycosphaerella arachidis; in the assay on Botryotinia fuckeliana; in [3]; in the assay with Glomerella lagenarium) was at least 80% throughout. The “control of Alternaria solani compared to untreated control” value in the assay with Alternaria solani is reported as “at least 80%”. For the same compound, the “control of Blumeria graminis f. sp. tritici compared to untreated control” value in [1] is “at least 80%”. For the same compound, in the assay on Phaeosphaeria nodorum, the “control of Phaeosphaeria nodorum compared to untreated control” value is given as “at least 80%”.

With `COc1ccc2c(c1)[C@@H](c1cnn(C)c1)CN(C(=O)c1nnn(-c3ccccc3)n1)[C@H]2C` (single isomer, unassigned) [Compound P-37], the “control of Pyrenophora teres compared to untreated control” value in the assay with Pyrenophora teres is given as “at least 80%”. The inhibition of growth at 20 ppm (with Monographella nivalis; in the assay with Mycosphaerella arachidis; in the assay on Botryotinia fuckeliana; in [3]) was at least 80% each time. Besides, the “control of Blumeria graminis f. sp. tritici compared to untreated control” value in [1] is reported as “at least 80%”. Further, the “control of Puccinia recondita f. sp. tritici compared to untreated control” value in assay [2] is reported as “at least 80%”. The “control of Phaeosphaeria nodorum compared to untreated control” value in the assay on Phaeosphaeria nodorum is given as “at least 80%”.

As for `C[C@H]1c2ccccc2[C@@H](c2cnn(C)c2)CN1C(=O)c1cn(-c2ncc(F)cc2F)nn1` [Compound P-51, [1-(3,5-difluoro-2-pyridyl)triazol-4-yl]-[(1S,4S)-1-methyl-4-(1-methylpyrazol-4-yl)-3,4-dihydro-1H-isoquinolin-2-yl]methanone], in the assay on Pyrenophora teres, the “control of Pyrenophora teres compared to untreated control” value is given as “at least 80%”. Moreover, the inhibition of growth at 20 ppm (in the assay on Monographella nivalis; in the assay with Mycosphaerella arachidis; with Botryotinia fuckeliana; in assay [3]; in the assay with Glomerella lagenarium) was at least 80% throughout. For the same compound, the “control of Alternaria solani compared to untreated control” value in the assay on Alternaria solani is listed as “at least 80%”. Besides, the “control of Blumeria graminis f. sp. tritici compared to untreated control” value in assay [1] was “at least 80%”. Also, the “control of Phaeosphaeria nodorum compared to untreated control” value in the assay with Phaeosphaeria nodorum is on record as “at least 80%”.
